According to ChEMBL document CHEMBL5154760, “Metabolism guided optimization of peptidomimetics as non-covalent proteasome inhibitors for cancer treatment” (Eur J Med Chem, 2022):
Activity calls are given as the source filed them. The rule behind the calls is not given here.

What was measured:
20S proteasome = experiment: Inhibition of chymotrypsin-like activity of human 20S proteasome using Suc-Leu Leu-Val-Tyr-AMC as substrate preincubated for 15 mins followed by substrate addition measured by fluorescence assay; assay type: protein-complex assay
MV4-11 = experiment: Antiproliferative activity against human MV4-11 cells after 72 hrs by MTS assay; assay type: functional, cell-based; conditions: MV4-11, 72 h
RPMI-8226 = experiment: Antiproliferative activity against human RPMI-8226 cells after 72 hrs by MTS assay; assay type: functional, cell-based; conditions: RPMI-8226, 72 h
MM1.S = experiment: Antiproliferative activity against human MM1.S cells after 72 hrs by MTS assay; assay type: functional, cell-based
[1] = Stability of the compound in mouse blood assessed as half-life measured by LC-MS/MS analysis; assay type: ADME, tissue-based
[2] = target: 20S proteasome (Homo sapiens) (UniProt P49721+P20618+P28074+P28062+P28065+P28072+P25786+P25787+P25788+P25789+P28066+P60900+O14818+Q8TAA3+P40306+A5LHX3+P49720+P28070+Q99436); experiment: Inhibition of chymotrypsin-like activity of 20S proteasome in human MM1.S cells assessed as accumulation of polyubiquitinated proteins at 10 to 1000 nM and measured by Western blot analysis; assay type: cell-based; conditions: dose 10-1000 nM
[3] = In vivo inhibition of chymotrypsin-like activity of 20S proteasome in ICR mouse at 5 mg/kg, iv; assay type: functional

CC(C)(C)CNC(=O)C[C@H](NC(=O)N1CCN(C(=O)c2cccnc2)CC1)C(=O)N[C@@H](CCc1ccccc1)C(=O)N[C@@H]1CCCc2ccccc21
IC50 (20S proteasome): 25 nM

CC(C)(C)CNC(=O)C[C@H](NC(=O)N1CCC(C(=O)N2CCc3ccccc32)CC1)C(=O)N[C@@H](CCc1ccccc1)C(=O)N[C@@H]1CCCc2ccccc21
IC50 (MV4-11): 4.6 nM
IC50 (20S proteasome): 7.24 nM
IC50 (RPMI-8226): 19.9 nM
IC50 (MM1.S): 16.9 nM

COc1ccc(N(C)C(=O)C2CCN(C(=O)N[C@@H](CC(=O)NCC(C)(C)C)C(=O)N[C@@H](CCc3ccccc3)C(=O)N[C@@H]3CCCc4ccccc43)CC2)cc1
IC50 (20S proteasome): 25 nM

CN(C(=O)C1CCN(C(=O)N[C@@H](CC(=O)NCC(C)(C)C)C(=O)N[C@@H](CCc2ccccc2)C(=O)N[C@@H]2CCCc3ccccc32)CC1)c1ccccn1
IC50 (MV4-11): 4.85 nM
IC50 (20S proteasome): 8.92 nM
IC50 (RPMI-8226): 33.7 nM
IC50 (MM1.S): 20.6 nM

CN(C(=O)C1CCN(C(=O)N[C@@H](CC(=O)NCC(C)(C)C)C(=O)N[C@@H](CCc2ccccc2)C(=O)N[C@@H]2CCCc3ccccc32)CC1)c1ccc(F)cc1
IC50 (MV4-11): 4.87 nM
IC50 (20S proteasome): 9.38 nM
IC50 (RPMI-8226): 26.2 nM
IC50 (MM1.S): 17.7 nM

C[C@@H](c1ccccc1)N(C)C(=O)[C@H](CCc1ccccc1)NC(=O)[C@H](CC(=O)NCC(C)(C)C)NC(=O)N1CCC(C(=O)Nc2cccnc2)CC1
IC50 (20S proteasome): > 10000 nM

CC(C)(C)CNC(=O)C[C@H](NC(=O)N1CCC(C(=O)Nc2cccnc2)CC1)C(=O)N[C@@H](CCc1ccccc1)C(=O)N[C@H]1CCCc2ccccc21
IC50 (20S proteasome): 4480 nM

CN(C(=O)C1CCN(C(=O)N[C@@H](CC(=O)NCC(C)(C)C)C(=O)N[C@@H](CCc2ccccc2)C(=O)N2CCc3ccccc3C2)CC1)c1cccnc1
IC50 (20S proteasome): > 10000 nM

CC(C)(C)CNC(=O)C[C@H](NC(=O)N1CCC(C(=O)Nc2cccnc2)CC1)C(=O)N[C@@H](CCc1ccccc1)C(=O)N1CCc2ccccc2C1
IC50 (20S proteasome): 1590 nM

C[C@@H](c1ccccc1)N(C)C(=O)[C@H](CCc1ccccc1)NC(=O)[C@H](CC(=O)NCC(C)(C)C)NC(=O)N1CCC(C(=O)N(C)c2cccnc2)CC1
IC50 (20S proteasome): > 10000 nM

CN(C(=O)c1cccnc1)C1CCN(C(=O)N[C@@H](CC(=O)NCC(C)(C)C)C(=O)N[C@@H](CCc2ccccc2)C(=O)N[C@@H]2CCCc3ccccc32)CC1
IC50 (MV4-11): 7.65 nM
IC50 (20S proteasome): 5.15 nM
IC50 (RPMI-8226): 60.4 nM
IC50 (MM1.S): 33.5 nM

CN(C(=O)C1CCN(C(=O)N[C@@H](CC(=O)NCC(C)(C)C)C(=O)N[C@@H](CCc2ccccc2)C(=O)N[C@@H]2CCCc3ccccc32)CC1)c1ccncc1
IC50 (MV4-11): 51.7 nM
IC50 (20S proteasome): 9.26 nM
IC50 (RPMI-8226): > 100 nM
IC50 (MM1.S): 84 nM

CN(C(=O)C1CCN(C(=O)N[C@@H](CC(=O)NCC(C)(C)C)C(=O)N[C@@H](CCc2ccccc2)C(=O)N[C@@H]2CCCc3ccccc32)CC1)c1cccnc1
IC50 (MV4-11): 12 nM
IC50 (20S proteasome): 8.59 nM
IC50 (RPMI-8226): 81.7 nM
IC50 (MM1.S): 54.2 nM

CC(C)(C)CNC(=O)C[C@H](NC(=O)N1CCN(C(=O)Nc2ccc(Cl)cc2)CC1)C(=O)N[C@@H](CCc1ccccc1)C(=O)N[C@@H]1CCCc2ccccc21
IC50 (20S proteasome): 23.7 nM

CN(C(=O)C1CCN(C(=O)N[C@@H](CC(=O)NCC(C)(C)C)C(=O)N[C@@H](CCc2ccccc2)C(=O)N[C@@H]2CCCc3ccccc32)CC1)c1ccccc1Cl
IC50 (20S proteasome): 21.6 nM

C[C@H](NC(=O)[C@H](CCc1ccccc1)NC(=O)[C@H](CC(=O)NCC(C)(C)C)NC(=O)N1CCC(C(=O)N(C)c2cccnc2)CC1)c1ccccc1
IC50 (20S proteasome): > 10000 nM

C[C@H](NC(=O)[C@H](CCc1ccccc1)NC(=O)[C@H](CC(=O)NCC(C)(C)C)NC(=O)N1CCC(C(=O)Nc2cccnc2)CC1)c1ccccc1
IC50 (20S proteasome): > 10000 nM

CN(C(=O)C1CCN(C(=O)N[C@@H](CC(=O)NCC(C)(C)C)C(=O)N[C@@H](CCc2ccccc2)C(=O)N[C@@H]2CCCc3ccccc32)CC1)c1ccccc1
IC50 (MV4-11): 2.74 nM
IC50 (20S proteasome): 9.31 nM
IC50 (RPMI-8226): 20.7 nM
half-life [1]: 2.46 h
inhibition [2]: Active
IC50 (MM1.S): 8.82 nM

C[C@H](c1ccccc1)N(C)C(=O)[C@H](CCc1ccccc1)NC(=O)[C@H](CC(=O)NCC(C)(C)C)NC(=O)N1CCC(C(=O)N(C)c2cccnc2)CC1
IC50 (20S proteasome): > 10000 nM

CN(C(=O)C1CCN(C(=O)N[C@@H](CC(=O)NCC(C)(C)C)C(=O)N[C@@H](CCc2ccccc2)C(=O)N[C@@H]2CCCc3ccccc32)CC1)c1nccs1
IC50 (MV4-11): 1.57 nM
IC50 (20S proteasome): 3.43 nM
IC50 (RPMI-8226): 12.1 nM
half-life [1]: 1.4 h
inhibition [2]: Active
inhibition in vivo at 5 mg/kg [3]: 50%
IC50 (MM1.S): 8.36 nM

C[C@@H](NC(=O)[C@H](CCc1ccccc1)NC(=O)[C@H](CC(=O)NCC(C)(C)C)NC(=O)N1CCC(C(=O)Nc2cccnc2)CC1)c1ccccc1
IC50 (20S proteasome): 20.3 nM

C[C@@H](NC(=O)[C@H](CCc1ccccc1)NC(=O)[C@H](CC(=O)NCC(C)(C)C)NC(=O)N1CCC(C(=O)N(C)c2cccnc2)CC1)c1ccccc1
IC50 (20S proteasome): 99.8 nM

CN(C(=O)C1CCN(C(=O)N[C@@H](CC(=O)NCC(C)(C)C)C(=O)N[C@@H](CCc2ccccc2)C(=O)N[C@H]2CCCc3ccccc32)CC1)c1cccnc1
IC50 (20S proteasome): > 10000 nM

CC(C)C[C@H](NC(=O)[C@H](CCc1ccccc1)NC(=O)CN1CCOCC1)C(=O)N[C@@H](Cc1ccccc1)C(=O)N[C@@H](CC(C)C)C(=O)[C@]1(C)CO1
IC50 (MV4-11): 0.983 nM
IC50 (RPMI-8226): 6.35 nM
IC50 (MM1.S): 9.15 nM

CN(Cc1ccccc1Cl)C(=O)[C@H](CCc1ccccc1)NC(=O)[C@H](CC(=O)NCC(C)(C)C)NC(=O)N1CCC(C(=O)Nc2cccnc2)CC1
IC50 (20S proteasome): 1740 nM

CN(C(=O)C1CCN(C(=O)N[C@@H](CC(=O)NCC(C)(C)C)C(=O)N[C@@H](CCc2ccccc2)C(=O)N[C@@H]2CCCc3ccccc32)CC1)c1ccc(Cl)cc1
IC50 (MV4-11): 4.06 nM
IC50 (20S proteasome): 6.95 nM
IC50 (RPMI-8226): 20.8 nM
IC50 (MM1.S): 26.9 nM

CN(Cc1ccccc1Cl)C(=O)[C@H](CCc1ccccc1)NC(=O)[C@H](CC(=O)NCC(C)(C)C)NC(=O)N1CCC(C(=O)N(C)c2cccnc2)CC1
IC50 (20S proteasome): > 10000 nM

CC(C)(C)CNC(=O)C[C@H](NC(=O)N1CCC(C(=O)Nc2cccnc2)CC1)C(=O)N[C@@H](CCc1ccccc1)C(=O)N[C@@H]1CCCc2ccccc21
IC50 (MV4-11): 6.83 nM
IC50 (20S proteasome): 4.03 nM
IC50 (RPMI-8226): 40.7 nM
IC50 (MM1.S): 35.1 nM

CC(C)(C)CNC(=O)C[C@H](NC(=O)N1CCC(C(=O)Nc2nccs2)CC1)C(=O)N[C@@H](CCc1ccccc1)C(=O)NCc1ccccc1Cl
IC50 (20S proteasome): 0.92 nM
half-life [1]: 0.613 h

CN(C(=O)C1CCN(C(=O)N[C@@H](CC(=O)NCC(C)(C)C)C(=O)N[C@@H](CCc2ccccc2)C(=O)N[C@@H]2CCCc3ccccc32)CC1)c1cccc(Cl)c1
IC50 (20S proteasome): 22.6 nM

CC(C)(C)CNC(=O)C[C@H](NC(=O)N1CCC(NC(=O)Nc2ccc(Cl)cc2)CC1)C(=O)N[C@@H](CCc1ccccc1)C(=O)N[C@@H]1CCCc2ccccc21
IC50 (20S proteasome): 41.2 nM

CCN(C(=O)C1CCN(C(=O)N[C@@H](CC(=O)NCC(C)(C)C)C(=O)N[C@@H](CCc2ccccc2)C(=O)N[C@@H]2CCCc3ccccc32)CC1)c1ccccc1
IC50 (MV4-11): 2.46 nM
IC50 (20S proteasome): 8.39 nM
IC50 (RPMI-8226): 15.3 nM
half-life [1]: 5.49 h
inhibition [2]: Active
inhibition in vivo at 5 mg/kg [3]: 50%
IC50 (MM1.S): 9.07 nM

CC(C)(C)CNC(=O)C[C@H](NC(=O)N1CCC(C(=O)Nc2cnccn2)CC1)C(=O)N[C@@H](CCc1ccccc1)C(=O)N1CCc2ccccc2C1
IC50 (20S proteasome): > 10000 nM

CC(C)(C)CNC(=O)C[C@H](NC(=O)N1CCC(C(=O)N2CCCc3ccccc32)CC1)C(=O)N[C@@H](CCc1ccccc1)C(=O)N[C@@H]1CCCc2ccccc21
IC50 (MV4-11): 4.93 nM
IC50 (20S proteasome): 8.09 nM
IC50 (RPMI-8226): 24 nM
IC50 (MM1.S): 12.4 nM
